Test results: the NIST ThermoML archive (doi:10.1016/j.jct.2013.07.002)
Numbers after ± are expanded uncertainties.

Details: 101.33 kPa, Liquid; for viscosity: Concentric cylinders viscometry; for thermal conductivity: Hot wire method

OCCO [1,2-ethanediol]
Details | thermal conductivity [W/m/K] | viscosity [mPa·s]
283.15 K | 0.243 ± 0.015 | 35.44 ± 3.6
288.15 K | – | 28 ± 2.8
293.15 K | – | 21.89 ± 2.2
298.15 K | – | 17.25 ± 1.7
303.15 K | 0.246 ± 0.015 | 13.86 ± 1.4
308.15 K | – | 11.64 ± 1.2
313.15 K | – | 9.62 ± 0.97
323.15 K | 0.249 ± 0.015 | 7.21 ± 0.72
343.15 K | 0.259 ± 0.016 | –
